Data: patent US9168295B2, “Vaccine peptide combinations” (Circassia Limited, priority 2007, dated 2015)
“Also recorded” adds a separate entry of the source. Where two headings read alike, the source gives them in different places. No end group written: not given here.

Tested on: peripheral blood basophils (PBMC) from cat allergic subjects
Experiment: Histamine release assay and histamine ELISA
Assay type: cell-based, human
Conditions: for frequency of histamine release, in words: comparison among individual peptides
Protocol: Histamine release from fresh peripheral whole blood from cat allergic subjects was evaluated. Peripheral blood basophils were used as a surrogate for tissue mast cells which were not practical to assay. Blood was incubated in vitro with 9 individual peptides from the sequence of the major cat allergen Fel d 1 (SEQ ID NOS: 1, 2, 3, 4, 5, 6, 7, 11 and 12). These peptides were selected as potential T cell epitopes following peptide-MHC binding assays as explained in Example 1. Additionally, responses to a preferred mixtures of a mixture of 7 peptides identified in Example 1 were analysed. The tested preferred mixture of 7 peptides consisted of the peptides of SEQ ID NOS: 1 to 7. Histamine release in response to whole cat dander allergen extract acted as a positive control.
Peripheral blood mononuclear cells (PBMC) were isolated from the heparinised blood sample obtained from the subject. PBMC's were isolated by Ficoll-Hypaque density gradient separation. Once isolated, the cells were used in the cell proliferation assay, histamine release and ELISA assay and the cytokine release assay.
Assays were performed on PBMC (which contain basophils). Each peptide and combinations of peptides was compared with whole allergen molecules in a histamine release assay. Histamine concentrations were measured by ELISA.
The assay required 3×10^6 PBMC's per subject. The assay was performed using the Immunotech Histamine Release Immunoassay kit according to the manufacturer's instructions. Following the histamine release assay, acylated samples were tested by histamine ELISA. The histamine ELISA used 50 μl of the 100 μl acylated sample generated by the histamine release assay. The remaining 50 μl of sample was retained, by freezing at −20° C. until the data analysis section of the ELISA has been completed. Once the results had been analysed and the ELISA performed in a satisfactory manner, the samples were discarded.
Peptides were assayed for their ability to induce histamine release over a 5 log10 range (10 μg/ml to 1 ng/ml). The concentration range assayed was selected based on theoretical in vivo doses of peptide that may be achieved during therapy. For example, a 10 μg dose of peptide entering a blood volume of 5 litres, would result in a blood concentration of 2 ng/ml (2×10^−6 mg/ml), at the lower end of the histamine release assay dose range. Whole cat dander extract (C.B.F. LETI) was used as a positive control for release over a slightly higher concentration range (100 μg to 10 ng/ml). Single measurements (i.e. not duplicate or triplicate) were performed for each dilution. One duplicate blood sample was assayed for spontaneous histamine release and the mean value of these samples was subtracted from all peptide/allergen results.
After completion of the histamine ELISA, individual histamine levels were determined by interpolation for the standard curve generated in the ELISA assay. Results from samples were adjusted to allow for any dilution of the samples.
Histamine release was considered positive if (a) the highest concentration of peptide alone induced release of 10% or more of the total release value or (b) if two consecutive values were 10% or more of the total release. […] Of these, 6/81 (7.4%) had not positive control release to whole cat allergen extract.

| Molecule | number of individuals in whom histamine release was detected (of 81 subjects) | further results |
| --- | --- | --- |
| CC(C)C[C@H](NC(=O)[C@@H](NC(=O)[C@@H](NC(=O)[C@@H]1CCCN1C(=O)[C@H](CC(C)C)NC(=O)[C@H](C)NC(=O)[C@H](CCCCN)NC(=O)[C@H](Cc1ccc(O)cc1)NC(=O)[C@H](CCC(N)=O)NC(=O)[C@H](C)NC(=O)[C@@H](NC(=O)[C@H](CCC(N)=O)NC(=O)[C@@H](N)CCC(=O)O)C(C)C)C(C)C)C(C)C)C(=O)N[C@@H](CCC(=O)O)C(=O)N[C@@H](CC(N)=O)C(=O)N[C@@H](C)C(=O)O [MLA03, EQVAQYKALPVVLENA] | 6 | – |
| AVQNTVEDLKLNTLGR [MLA16, AVQNTVEDLKLNTLGR] | 11 | frequency of histamine release, in words: most commonly released histamine; also recorded: the most frequent basophil histamine release responses; also recorded: most frequently associated with histamine release; also recorded: caused most frequent release; also recorded: gave the highest histamine release |
| ISSSKDCMGEAVQNTV [MLA15, ISSSKDCMGEAVQNTV] | 7 | frequency of histamine release, in words: most commonly released histamine; also recorded: the most frequent basophil histamine release responses; also recorded: gave the highest histamine release; Comments on histamine release (individual subject): MLA15 JUST ABOVE THE 10% CUT OFF |
| KALPVVLENARILKNCV [MLA04, KALPVVLENARILKNCV] | 6 | – |
| KENALSVLDKIYTSPL [MLA07] | – | number of individuals in whom histamine release was detected: 6 |
| RILKNCVDAKMTEEDKE [MLA05, RILKNCVDAKMTEEDKE] | – | number of individuals in whom histamine release was detected: 1 |
| SRVLDGLVMTTISSSK [MLA14, SRVLDGLVMTTISSSK] | 2 | – |
| TAMKKIQDCYVENGLI [MLA12, TAMKKIQDCYVENGLI] | 6 | – |
